Assay results from the NIST ThermoML archive (doi:10.1016/j.fluid.2007.11.005).

Conditions: Liquid, Bellows volumetry

CCCCCCCCOS(=O)(=O)[O-].CCCCn1cc[n+](C)c1 [1-butyl-3-methylimidazolium octyl sulfate]
mass density [kg/m3]
Conditions	312.9 K	332.8 K	352.8 K	373 K	393.1 K
100 kPa	1060	–	–	–	–
10000 kPa	1065	1052	1040	1028	1016
20000 kPa	1070	1058	1046	1034	1023
30000 kPa	1075	1063	1051	1040	1028
40000 kPa	1080	1068	1056	1045	1034
50000 kPa	1084	1073	1061	1050	1039
60000 kPa	1091	1077	1066	1055	1045
70000 kPa	1093	1081	1070	1060	1049
80000 kPa	1097	1085	1075	1064	1054
90000 kPa	1096	1089	1079	1068	1058
100000 kPa	–	1093	1083	1073	1063
110000 kPa	–	1097	1087	1077	1067
120000 kPa	–	1101	1090	1080	1071
130000 kPa	–	1104	1094	1084	1075
140000 kPa	–	1107	1097	1088	1078
150000 kPa	–	1111	1101	1091	1082
160000 kPa	–	1114	1104	1095	–
170000 kPa	–	1117	1107	1098	–
180000 kPa	–	1120	1111	1102	–
190000 kPa	–	1123	1114	1105	–
200000 kPa	–	1126	1117	1108	–
